The results in this text go back to PubChem BioAssay (NCI).

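Cells were grown in 96-well plates and exposed to each compound for 48 hours at five concentrations; endpoints were interpolated linearly between bracketing concentrations, or set to the highest concentration if not reached. Here, GI50 denotes the concentration required for 50% inhibition of growth. Definition used: TGI = concentration required for complete inhibition of growth.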

Some test systems named below: HCT-15 colon; HOP-62 NSCLC; K-562 leukemia; NCI-H460 lung; UACC-257 melanoma; SK-OV-3 ovarian; SNB-19 CNS; HOP-92 NSCLC; PC-3 prostate; NCI/ADR-RES ovarian.
Common to all, as to experiment: growth of human tumour cells (NCI), 48 h

Turning to `CCOC(=O)NC(=O)c1cn(CCCCCCCCCCC(=O)N2CCN(CCn3cc(C(=O)NC(=O)OCC)c(=O)[nH]c3=O)CC2)c(=O)[nH]c1=O`, the TGI in the assay on HCT-15 colon, with HOP-62 NSCLC, in the assay with K-562 leukemia, with NCI-H460 lung, in the assay on UACC-257 melanoma and with SK-OV-3 ovarian was greater than 100 µM throughout. The TGI in the assay on SNB-19 CNS and in the assay on HOP-92 NSCLC was greater than 100 µM each time.

Turning to `CC1=C(C)C(=O)c2c(cc3c4ccccc4ccn23)C1=O`, the TGI in the assay on HCT-15 colon, with HOP-62 NSCLC, with K-562 leukemia, in the assay on NCI-H460 lung, with UACC-257 melanoma and with SK-OV-3 ovarian was greater than 100 µM in each case. In the assay with SNB-19 CNS, the TGI was greater than 100 µM.

For the compound `COc1ccc(S(=O)(=O)Nc2cc(/C=C\c3cc(OC)c(OC)c(OC)c3)cc(OC)c2OC)cc1OC`, the GI50 was 0.671 µM in the assay with HCT-15 colon; 17.6 µM in the assay on HOP-62 NSCLC; 0.425 µM with K-562 leukemia; 0.399 µM with NCI-H460 lung; 27 µM in the assay with UACC-257 melanoma; 11.4 µM in the assay with SK-OV-3 ovarian. Moreover, the GI50 in the assay with PC-3 prostate is 0.374 µM; in the assay with SNB-19 CNS it was 1.11 µM; in the assay with HOP-92 NSCLC it was 0.207 µM. The TGI in the assay with HCT-15 colon, in the assay on HOP-62 NSCLC, in the assay with K-562 leukemia, with NCI-H460 lung, in the assay with UACC-257 melanoma and with SK-OV-3 ovarian was greater than 100 µM throughout. Further, the TGI with PC-3 prostate is greater than 100 µM; in the assay with SNB-19 CNS, greater than 100 µM; with HOP-92 NSCLC, 67.5 µM.

With `CCCCCCCCCCCCCCCCc1c(C(=O)OC)[nH]c(=S)[nH]c1=O`, the TGI in the assay with HCT-15 colon, with HOP-62 NSCLC, in the assay on K-562 leukemia, in the assay with NCI-H460 lung, with UACC-257 melanoma and with SK-OV-3 ovarian was greater than 50 µM in each case. Moreover, the figures for the TGI with SNB-19 CNS and with HOP-92 NSCLC were greater than 50 µM and 41 µM, respectively.

For the compound `Cn1c(O)c(C=N)c(=O)n(C)c1=O`, the TGI in the assay on HCT-15 colon, with K-562 leukemia, in the assay with NCI-H460 lung, in the assay with UACC-257 melanoma, in the assay with SNB-19 CNS and in the assay on HOP-92 NSCLC was greater than 100 µM throughout.

Turning to `OCC1OC(n2ccc3cnccc32)CC1O` (configuration not stated), the TGI in the assay on HCT-15 colon, in the assay on HOP-62 NSCLC, in the assay on K-562 leukemia, in the assay on NCI-H460 lung, with UACC-257 melanoma and with SK-OV-3 ovarian was greater than 100 µM each time. In addition, the TGI with SNB-19 CNS and in the assay on HOP-92 NSCLC was greater than 100 µM in each case.

With `[Ce+3].[Cl-].[O-]/N=C(\c1ccccc1)c1ccccn1.[O-]/N=C(\c1ccccc1)c1ccccn1.[O-]/N=C(\c1ccccc1)c1ccccn1`, the GI50 in the assay with HCT-15 colon is 38.1 µM; in the assay on HOP-62 NSCLC it was 30.3 µM; in the assay on K-562 leukemia, 36.3 µM; with NCI-H460 lung, 47.1 µM; with UACC-257 melanoma, 38 µM; in the assay on SK-OV-3 ovarian it was 37.2 µM. The values for the GI50 in the assay on SNB-19 CNS and in the assay on HOP-92 NSCLC were 42.6 µM and 25.1 µM, respectively. Also, the TGI in the assay with HCT-15 colon, with HOP-62 NSCLC, in the assay with K-562 leukemia, in the assay on NCI-H460 lung, with UACC-257 melanoma and in the assay on SK-OV-3 ovarian was greater than 100 µM in each case. In addition, the TGI in the assay on SNB-19 CNS and with HOP-92 NSCLC was greater than 100 µM each time.

For the compound `Cc1c(NC(=O)CCCl)c(=O)oc2c(C)c3occc(=O)c3cc12`, the TGI in the assay on HCT-15 colon, with HOP-62 NSCLC, with K-562 leukemia, with NCI-H460 lung, in the assay with UACC-257 melanoma and in the assay on SK-OV-3 ovarian was greater than 100 µM each time. Moreover, the TGI in the assay with NCI/ADR-RES ovarian, in the assay with SNB-19 CNS and with HOP-92 NSCLC was greater than 100 µM each time.

For the compound `S=c1cn[nH]c2ccc(Br)cc12`, the TGI in the assay with HCT-15 colon, in the assay with HOP-62 NSCLC, in the assay on K-562 leukemia, in the assay on NCI-H460 lung, with UACC-257 melanoma and with SK-OV-3 ovarian was greater than 100 µM in each case. Further, the TGI with NCI/ADR-RES ovarian, in the assay with SNB-19 CNS and in the assay with HOP-92 NSCLC was greater than 100 µM in each case.

`CC1C(=O)CCC1C(Sc1ccccc1)(Sc1ccccc1)Sc1ccccc1` (configuration not stated): the TGI in the assay on HCT-15 colon was greater than 100 µM; in the assay with HOP-62 NSCLC, greater than 100 µM; in the assay with K-562 leukemia, 80.5 µM; in the assay on NCI-H460 lung it was greater than 100 µM; with UACC-257 melanoma, greater than 100 µM; with SK-OV-3 ovarian, greater than 100 µM. Further, the TGI in the assay with SNB-19 CNS is greater than 100 µM; in the assay with HOP-92 NSCLC, 81.8 µM.

With `CCOC(=O)/C(=C/c1cc(OC)ccc1OC)CC(=O)O`, the TGI is greater than 62.7 µM with HCT-15 colon; greater than 31.6 µM in the assay with K-562 leukemia; greater than 100 µM in the assay with NCI-H460 lung; greater than 100 µM in the assay with UACC-257 melanoma; greater than 100 µM in the assay with SK-OV-3 ovarian; greater than 100 µM in the assay with SNB-19 CNS. Besides, the TGI in the assay on HOP-92 NSCLC is greater than 100 µM.

Take `Nc1ccccc1S(=O)c1ccccc1` (configuration not stated): the TGI with HCT-15 colon was greater than 100 µM; in the assay with HOP-62 NSCLC, greater than 100 µM; in the assay with K-562 leukemia it was greater than 100 µM; in the assay with NCI-H460 lung it was greater than 100 µM; in the assay on UACC-257 melanoma, greater than 1 µM; with SK-OV-3 ovarian, greater than 100 µM. For the same compound, the TGI in the assay on SNB-19 CNS and with HOP-92 NSCLC was greater than 100 µM in each case.

`CC12Oc3ccc4ccccc4c3C1c1c(ccc3ccccc13)O2` (configuration not stated): the TGI in the assay on K-562 leukemia, in the assay with NCI-H460 lung, with SK-OV-3 ovarian, in the assay with SNB-19 CNS and with HOP-92 NSCLC was greater than 100 µM throughout.

As for `CC(=O)c1cc2c3c(c1)c1cc4c(cc1c(=O)n3CC2)OCO4`, the TGI in the assay with HCT-15 colon is greater than 100 µM; with HOP-62 NSCLC, greater than 100 µM; with K-562 leukemia it was greater than 100 µM; in the assay with NCI-H460 lung, 49.7 µM; in the assay on UACC-257 melanoma, greater than 100 µM; in the assay with SK-OV-3 ovarian it was greater than 100 µM. For the same compound, the TGI in the assay on SNB-19 CNS and with HOP-92 NSCLC was greater than 100 µM each time.

As for `Cn1nc(-c2ccccc2)c(C(=O)/C=C/c2ccccc2)c(N2CCCCC2)c1=O`, the TGI with HCT-15 colon was greater than 100 µM; with HOP-62 NSCLC it was 42.8 µM; in the assay with K-562 leukemia, greater than 100 µM; in the assay with NCI-H460 lung, greater than 100 µM; with SK-OV-3 ovarian, greater than 100 µM; with SNB-19 CNS it was greater than 100 µM. This compound had a TGI in the assay on HOP-92 NSCLC of 86.7 µM.
